Experimental data as given in patent US8748369B2, “Use of targeted nitroxide agents in bone healing” (University of Pittsburgh-Of the Commonwealth System of …, priority 2009, dated 2014).

Tests used:
[1] = test system: mitochondria of 32D c13 hemopoietic cells; test: Mass spectrometry of compounds in mitochondria isolated from 32D cl3 cells; type: cell-based, mouse; settings: 100 μM; for permeation of the mitochondrial membrane (unconjugated compound): two hours at 37° C.; for Fmole/l 0 M mitochondrial protein (relative quantification of conjugate concentration at the target site): mouse, 2 h
Experimental: An unconjugated and conjugated NOS antagonist, (AMT, 100 μM) and an unconjugated and conjugated nitroxide derivative (4-amino-TEMPO, 100 μM) were incubated for two hours at 37° C. with 32D c13 hemopoietic cells.
Following incubation, the cells were lysed and the mitochondria isolated for a mass spectrometry analysis where compounds isolated from mitochondria were identified as Na+ adducts. […] Thus, the targeting peptides successfully direct a NOS antagonist and a nitroxide to the mitochondria.
Quantitative mass spectrometry studies were used to compare the effectiveness of several AMT peptide conjugates in permeating the mitochondrial membrane, specifically XJB-5-234, XJB-5-133, XJB-5-241, and XJB-5-127. The Fmole/10 μM mitochondrial protein ratio provides a relative quantification of conjugate concentration at the target site.

[2] = test system: rat ileal mucosal permeability following hemorrhagic shock; test: Intestinal mucosal permeability assay (FD4) after hemorrhagic shock; type: in vivo; settings: intraluminal
Experimental: Intestinal Mucosal Permeability Assay. Animals were allowed access to water but not food for 24 h prior to the experiment in order to decrease the volume of intestinal contents. The rats were instrumented as described above. A midline laparotomy was performed and the small intestine was exteriorized from the duodenojejunal junction to the ileocecal valve. A small incision was made on the antimesenteric aspect of the proximal small intestine and saline solution (1.5 ml) was injected. The bowel was ligated proximally and distally to the incision with 4-0 silk (Look, Reading, Pa.).
The small intestine was compressed gently in aboral direction along its length to displace intestinal contents into the colon. Starting 5 cm from the ileocecal valve, the ileum was partitioned into six contiguous water-tight segments. […]
The remaining four other segments were injected with solutions containing either 4-hydroxy-2,2,6,6-tetramethylpiperidine-N-oxyl (TEMPOL) or one of the Gramicidin S-based compounds. Four different final concentrations of TEMPOL in normal saline were evaluated: 0.1, 1, 5 and 20 mM. […]
Fluorescence of FD4 in the solution inside the beaker and within each gut sac was measured using a fluorescence spectrophotometer (LS-50, Perkin-Elmer, Palo Alto, Calif.) at an excitation wavelength of 492 nm and an emission wavelength of 515 nm. […]

[3] = test system: rats subjected to volume-controlled hemorrhagic shock; test: Survival of rats subjected to volume-controlled hemorrhagic shock; type: in vivo, rat; settings: 2 μmol/kg intravenous, no resuscitation
Experimental: Survival of Rats Subjected to Volume-controlled Hemorrhagic Shock. Following surgical preparation and a 5-min stabilization period to obtain baseline readings, rats were subjected to hemorrhagic shock. Bleeding was carried out in 2 phases.
Initially, 21 ml/kg of blood was withdrawn over 20 min. Immediately thereafter, an additional 12.5 ml/kg of blood was withdrawn over 40 min. Thus, hemorrhage occurred over a total period of 60 min and the total blood loss was 33.5 ml/kg or approximately 55% of the total blood volume. Rats were randomly assigned to receive XJB-5-131 (2 μmmol/kg) or its vehicle, a 33:67 (v/v) mixture of DMSO and normal saline. XJB-5-131 solution or vehicle alone was administered as a continuous infusion during the last 20 min of the hemorrhage period. The total volume of fluid infused was 2.8 ml/kg and it was administered intravenously using a syringe pump (KD100, KD Scientific, New Hope, Pa.). […] At the end of the 6 hour observation period, animals that were still alive were euthanized with an overdose of KCl.
Blood pressure was recorded continuously using a commercial strain-gauge transducer, amplifier, and monitor (590603a, SpaceLabs, Redmond, Wash.). […] Hemoglobin concentration [Hb], lactate and glucose concentration were determined using an auto-analyzer (Model ABL 725, Radiometer Copenhagen, Westlake, Ohio). […]

[4] = test system: mouse embryonic cells (MEC), mitochondria; test: EPR-based analysis of integration and reduction of nitroxide conjugates in MECs; type: cell-based; settings: MECs incubated with 10 μM compound
Experimental: Electron paramagnetic resonance (“EPR”) spectroscopy was used to monitor the cellular delivery of compounds 5a and 5b shown in FIG. 3 in mouse embryonic cells (“MEC”).
The following conditions were used during the EPR-based analysis of the integration and reduction of nitroxide Gramicidin S-peptidyl conjugates in MECs. The MECs at a concentration of 10 million MECs per mL were incubated with 10 μM of 4-AT and compound 5a, respectively. Recovered nitroxide radicals in whole cells, mitochondria, and cytosol fractions were resuspended in phosphate buffer saline (“PBS”) in the presence and absence, respectively, of 2 μM K3Fe(CN)6.

[5] = test system: mouse embryonic cells (MEC); test: ActD-induced apoptosis in MECs (PS externalization, caspase-3, DNA fragmentation); type: cell-based; settings: low concentrations (10 μM)
From the text: Cells that annexin V-positive and PI-negative were considered apoptotic.

[6] = test system: 32D cl 3 murine hematopoietic cells; test: Irradiation survival curves of 32D cl 3 cells; type: cell-based, mouse; settings: cells incubated in compound
Experimental: FIG. 16 illustrates the effect of GS conjugated nitroxide, XJB-5-125, on gamma-irradiation dose survival curves of 32D cl 3 murine hematopoietic cells.
Irradiation survival curves were performed on cells from the 32D cl 3 mouse hematopoietic progenitor cell line, incubated in 10 μM JP4-039 for 1 hour before irradiation, or plated in methycellulose containing 10 μM JP4-030 after irradiation. Cells were irradiated from 0 to 8 Gy, plated in 0.8% methycellulose containing media, and incubated for 7 days at 37° C. Colonies of greater than 50 cells were counted and data analyzed by linear quadratic and single-hit, multi-target models.

For `CC1CCN=C(N)S1` (stereo not drawn) [AMT, 2-amino-6-methyl-thiazine, reference compound], the “permeation of the mitochondrial membrane (unconjugated compound)” value [1] was “do not enter the mitochondria membrane in substantial quantities”.

`C/C(=C\[C@H](Cc1ccccc1)C(=O)N1CCC[C@H]1C(=O)N[C@H](C(=O)N[C@@H](CCCNC(=O)OCc1ccccc1)C(=O)NC1=NCCC(C)S1)C(C)C)[C@H](CC(C)C)NC(=O)OC(C)(C)C` (stereo partly drawn) [XJB-5-241, Boc-Leu-104 [(E)-C(CH3)═CH]-^DPhe-Pro-Val-Orn(Cbz)-AMT] was tested, and the “Fmole/l 0 M mitochondrial protein (relative quantification of conjugate concentration at the target site)” value [1] was 103.3 Fmole/l 0 M mitochondrial protein.

`CC(C)C[C@@H](/C=C/[C@H](Cc1ccccc1)C(=O)N1CCC[C@H]1C(=O)N[C@H](C(=O)N[C@@H](CCCNC(=O)OCc1ccccc1)C(=O)NC1CC(C)(C)N([O])C(C)(C)C1)C(C)C)NC(=O)OC(C)(C)C` [XJB-5-131] was tested, and the “hemorrhagic shock-induced mucosal hyperpermeability relative to control value” [2] was “approximately 60%”, the survival versus vehicle [3] was “survived significantly longer” and the “integration into cells and mitochondria (EPR signal of nitroxide radicals)” value (“integration into cells and mitochondria” for short) [4] was “concentrated in the mitochondria”. The “integration into cells and mitochondria” value ([4]; listed as 5a) was “integration and one-electron reduction”.

With `CC(C)C[C@@H](/C=C/[C@H](Cc1ccccc1)C(=O)NC1=NCCC(C)S1)NC(=O)OC(C)(C)C` (stereo partly drawn) [XJB-5-234, Boc-Leu-ψ[(E)-CH═CH]-^DPhe-AMT] the “Fmole/l 0 M mitochondrial protein (relative quantification of conjugate concentration at the target site)” value [1] was 1.45 Fmole/l 0 M mitochondrial protein.

With `CC(C)C[C@@H](/C=C/[C@H](Cc1ccccc1)C(=O)N1CCC[C@H]1C(=O)N[C@H](C(=O)N[C@@H](CCCNC(=O)OCc1ccccc1)C(=O)NC1=NCCC(C)S1)C(C)C)NC(=O)OC(C)(C)C` (stereo partly drawn) [XJB-5-133, Boc-Leu-ψ[(E)-CH═CH]-^DPhe-Pro-Val-Orn(Cbz)-AMT] the “Fmole/l 0 M mitochondrial protein (relative quantification of conjugate concentration at the target site)” value [1] was 89.8 Fmole/l 0 M mitochondrial protein.

With `CC1(C)CC(N)CC(C)(C)N1[O]` [Compound 4-AT, 4-amino-TEMPO, reference compound] the “protection of MECs against ActD-induced apoptosis” value [5] was “afforded no protection”, the “permeation of the mitochondrial membrane (unconjugated compound)” value [1] was “only permeate the mitochondrial membrane with the assistance of the attached GS-derived targeting sequence” and the “integration into cells and mitochondria” value [4] was “did not effectively permeate cells or the mitochondria”.

`CC1(C)CC(O)CC(C)(C)N1[O]` [TEMPOL, 4-hydroxy-2,2,6,6-tetramethylpiperidine-N-oxyl, reference compound] was tested, and the “Do of gamma-irradiation survival curve” value [6] was 1.209 Gy.
